Assay results taken from the supplement of paper PMC3974653.
Structures can show the parent of a compound that is named as a salt.

What follows are compounds tested on MTT (mouse pheochromocytoma) (assay: IC50 of cell viability (ATP content)). Conditions: (24 or 48 h).
How it was run: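 CellTiter-Glo ATP luminescence, read after 15 minutes, was used to assess MTT mouse pheochromocytoma cells treated for 24 or 48 hrs with library compounds (final 0.5 nM to 46 µM, 8 concentrations). The cells had been plated at 5 µl of 200,000 cells/ml per well in white 1536-well plates in DMEM with 5% FBS and 1% horse serum and cultured overnight at 37°C, 5% CO2. Normalisation set positive-control wells to 100% and DMSO wells to 0%. The IC50 was then determined by four-parameter logistic fitting.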

Row | SMILES | IC50 of cell viability [µM]
1 | O=C(O)[C@@H](O)[C@@H](O)[C@@H](O[C@@H]1O[C@@H](CO)[C@@H](O)[C@@H](O)[C@H]1O)[C@@H](O)CO [Lactobionic acid] | > 46
2 | Nc1ccn([C@@H]2CS[C@H](CO)O2)c(=O)n1 [Lamivudine] | > 46
3 | Nc1nnc(-c2cccc(Cl)c2Cl)c(N)n1 [Lamotrigine] | > 46
4 | CC(=O)OC1CC(OC2C(O)CC(OC3C(O)CC(O[C@H]4CC[C@]5(C)C6CC[C@]7(C)[C@@H](C8=CC(=O)OC8)[C@@H](O)C[C@]7(O)[C@@H]6CC[C@@H]5C4)OC3C)OC2C)OC(C)C1OC1OC(CO)C(O)C(O)C1O (some centres undefined) [Lanatoside B] | > 46
5 | CC1(C)OC[C@@H](COC(=O)CCc2ccc(OC[C@@H](O)CNCCNC(=O)N3CCOCC3)cc2)O1 [Landiolol Hydrochloride] | > 46
6 | CC1(C)OC[C@@H](COC(=O)CCc2ccc(OC[C@@H](O)CNCCNC(=O)N3CCOCC3)cc2)O1 [Landiolol] | > 46
7 | Cc1c(OCC(F)(F)F)ccnc1C[S+]([O-])c1nc2ccccc2[nH]1 (centres undefined) [Lansoprazole] | > 46
8 | Cc1oncc1C(=O)Nc1ccc(C(F)(F)F)cc1 [Leflunomide] | > 46
9 | O=C(CCCN1CCC(C(=O)c2ccc(F)cc2)CC1)c1ccc(F)cc1 [Lenperone] | > 46
10 | N#Cc1ccc(C(c2ccc(C#N)cc2)n2cncn2)cc1 [Letrozole] | > 46
11 | CCNC(=O)[C@H]1CCCN1C(=O)[C@H](CCCNC(=N)N)NC(=O)[C@H](CC(C)C)NC(=O)[C@H](CC(C)C)NC(=O)[C@@H](Cc1ccc(O)cc1)NC(=O)[C@H](CO)NC(=O)[C@@H](Cc1c[nH]c2ccccc12)NC(=O)[C@H](Cc1c[nH]cn1)NC(=O)[C@@H]1CCC(=O)N1 [Leuprolide acetate salt] | > 46
12 | CC1(C)Oc2ccc(C#N)cc2[C@@H](N2CCCC2=O)[C@@H]1O [Levcromakalim] | > 46
13 | CCCCN1CCCC[C@H]1C(=O)Nc1c(C)cccc1C [Levobupivacaine hydrochloride] | > 46
14 | C[C@H]1CN(C2CCC(C#N)(c3ccc(F)cc3)CC2)CC[C@@]1(C(=O)O)c1ccccc1 (some centres undefined) [Levocabastine hydrochloride] | > 46
15 | c1ccc2c(c1)Sc1ccccc1N2C[C@H]1CN2CCC1CC2 [Levomequitazine] | > 46
16 | C#C[C@]1(O)CC[C@H]2[C@@H]3CCC4=CC(=O)CC[C@@H]4[C@H]3CC[C@@]21CC [Levonorgestrel] | > 46
17 | CCC(=O)O[C@@](Cc1ccccc1)(c1ccccc1)[C@@H](C)CN(C)C.O=[S+]([O-])(O)c1ccc2ccccc2c1 [Levopropoxyphene napsylate] | > 46
18 | CCN1CCC[C@H]1CNC(=O)c1cc([S+](N)(=O)[O-])ccc1OC [Levosulpiride] | > 46
19 | N[C@@H](Cc1cc(I)c(Oc2cc(I)c(O)c(I)c2)c(I)c1)C(=O)O [Levothyroxine] | > 46
20 | CNC(=N)NC(=O)Nc1c(C)cccc1C [Lidamidine] | > 46
21 | Cc1cccc(C)c1NC(=O)CN(CC(=O)O)CC(=O)O [Lidofenin] | > 46
22 | Cc1cccc(C)c1NC(=O)CN1CCN(CCCC(c2ccc(F)cc2)c2ccc(F)cc2)CC1 [Lidoflazine] | > 46
23 | CN1CCC(OC(=O)C(Oc2ccc(Cl)cc2)Oc2ccc(Cl)cc2)CC1 [Lifibrate] | > 46
24 | CCC[C@@H]1C[C@@H](C(=O)N[C@@H]([C@H]2O[C@H](SC)[C@H](O)[C@@H](O)[C@H]2O)[C@@H](C)O)N(C)C1 [Lincomycin hydrochloride] | > 46
25 | CC(=O)NC[C@@H]1CN(c2ccc(N3CCOCC3)c(F)c2)C(=O)O1 [Linezolid] | > 46

Row | SMILES | IC50 of cell viability [µM]
26 | CCCCC/C=C\C/C=C\CCCCCCCC(=O)O [Linoleic acid] | > 46
27 | CN(C1=CC=CC=C1)C(=O)C/2=C(O)/C3=C(C=CC=C3)N(C)C2=O [Linomide] | > 46
28 | O=C1N(c2ccccc2)c2ccccc2C1(Cc1ccncc1)Cc1ccncc1 [Linopirdine dihydrochloride] | > 46
29 | NCCCC[C@H](N[C@@H](CCc1ccccc1)C(=O)O)C(=O)N1CCC[C@@H]1C(=O)O.O.O [Lisinopril] | > 46
30 | CC(O)CCCCn1c(=O)c2c(ncn2C)n(C)c1=O (centres undefined) [Lisofylline] | > 46
31 | CCN1\C=C(\C(O)=O)C(=O)C2=CC(=C(N3CCN[C@@H](C)C3)C(=C12)F)F [Lomefloxacin HCl] | > 46
32 | CCN1\C=C(\C(O)=O)C(=O)C2=CC(=C(N3CCN[C@@H](C)C3)C(=C12)F)F [Lomefloxacin hydrochloride] | > 46
33 | O=C(O)Cc1cn(-c2ccccc2)nc1-c1ccc(Cl)cc1 [Lonazolac] | > 46
34 | O=C(O)c1nn(Cc2ccc(Cl)cc2Cl)c2ccccc12 [Lonidamine] | > 46
35 | O=C1Nc2ccc(Cl)cc2C(c2ccccc2Cl)=NC1O (centres undefined) [Lorazepam] | > 46
36 | CCCC(C)(COC(N)=O)COC(=O)NC1CC1 (centres undefined) [Lorbamate] | > 46
37 | C[C@H]1CNCCc2ccc(Cl)cc21 [Lorcaserin] | > 46
38 | Cl/C(=C\n1cncn1)c1ccc(Cl)cc1Cl [Loreclezole hydrochloride] | > 46
39 | CN1C(C(=O)Nc2ccccn2)C(=O)c2sc(Cl)cc2[S+]1(=O)[O-] (centres undefined) [Lornoxicam] | > 46
40 | CCOC(=O)O[C@]1(C(=O)OCCl)CC[C@H]2[C@@H]3CCC4=CC(=O)C=C[C@]4(C)[C@H]3[C@@H](O)C[C@@]21C [Loteprednol etabonate] | > 46
41 | CC[C@H](C)C(=O)O[C@H]1C[C@@H](C)\C=C2\C=C/[C@H](C)[C@H](CC[C@@H]3C[C@@H](O)CC(=O)O3)[C@@H]12 [Lovastatin] | > 46
42 | CN1CCN(CC1)\C2=N\C3=C(OC4=C2C=C(Cl)C=C4)C=CC=C3.OC(=O)CCC(O)=O [Loxapine succinate] | > 46
43 | CCNC(=O)NCc1cccc(Cl)c1 [Lozilurea] | > 46
44 | CCCCC(F)(F)[C@@]1(O)CC[C@H]2[C@@H](CC(=O)[C@@H]2CCCCCCC(=O)O)O1 [Lubiprostone] | > 46
45 | O=C(NC(=O)c1c(F)cccc1F)Nc1cc(Cl)c(OC(F)(F)C(F)C(F)(F)F)cc1Cl (centres undefined) [Lufenuron] | > 46
46 | N#C/C(=C1/SC[C@@H](c2ccc(Cl)cc2Cl)S1)n1ccnc1 [Luliconazole] | > 46
47 | Cc1ccc(Nc2c(F)cccc2Cl)c(CC(=O)O)c1 [Lumiracoxib] | > 46
48 | C[C@]12CC[C@@H]3[C@H](CC\C4=C\CCC[C@H]34)[C@@H]1CC[C@]2(O)C#C [Lynestrenol] | > 46
49 | NCCCCC(NC(=O)C1CCCN1C(=O)C1CSSCC(N)C(=O)NC(Cc2ccc(O)cc2)C(=O)NC(Cc2ccccc2)C(=O)NC(CCC(N)=O)C(=O)NC(CC(N)=O)C(=O)N1)C(=O)NCC(N)=O (centres undefined) [Lypressin] | > 46
